Measurements taken from patent US20100035941A1, “METHODS FOR INCREASING BLOOD FLOW AND/OR PROMOTING TISSUE REGENERATION” (priority 2006, published 2010).
Where two headings read alike, the source gives them in different places.

Experiments:
progenitor cells = conditions: AMD3100 5 mg/Kg s.c. plus MIP-1α 5 μg I.V., 11 hours after rhu G-CSF or saline, 1 hour prior to assessing the blood
Method: Groups of mice were randomized to receive control diluent (saline) or G-CSF at a dose of 2.5 μg per mouse, twice a day, for two days via s.c. injection. […] One hour later, the mice were sacrificed and the number of progenitor cells per mL of blood were measured.

[1] = tested on: nucleated cells per ml of blood; conditions: average of 5 donors, s.c. 80 μg/kg
Method: Five healthy human volunteers having initial white blood cell counts of 4,500-7,500 cells/mm^3 were used in the study. […] Blood samples were obtained via catheter prior to the dose, and at various times up to 24 hours after dosing.
(§1) All progenitor cell results are based on the scoring of 3 culture plates per assay per point.

[2] = tested on: CFU-GM, BFU-E and CFU-GEMM progenitor cells; conditions: s.c. 80 μg/kg; for mean fold change vs T=0, methylcellulose culture BFU-E, MEAN / mean fold change vs T=0, methylcellulose culture CFU-GEMM, MEAN / mean fold change vs T=0, methylcellulose culture CFU-GM, MEAN / methylcellulose culture BFU-E, % CHG / methylcellulose culture CFU-GEMM, % CHG / methylcellulose culture CFU-GM, % CHG: 5 donors
Method: as §1
For the progenitor cell numbers and cycling status, the numbers of CFU-GM, BFU-E and CFU-GEMM in methylcellulose cultures by stimulation of the cells with 1 Unit (U)/ml recombinant human (rhu) erythropoietin, 100 U/ml rhu granulocyte-macrophage colony stimulating factor (GM-CSF), 100 U/ml rhu interleukin-3 (IL-3) and 50 ng/ml rhu steel factor (SLF=stem cell factor (SCF)). The CFU-GM were also evaluated in agar cultures stimulated with 100 U/ml rhu GM-CSF and 50 ng/ml rhu SLF. For both types of assays, colonies were scored after 14 day incubation in a humidified atmosphere with 5% CO2 and lowered (5%) O2 tension. Cell cycling status of progenitors was measured using a high specific activity tritiated thymidine kill technique as previously described (Broxmeyer, H. E., et al., Exp. Hematol. (1989) 17:455-459).

## c1cc(CN2CCCNCCNCCCNCC2)ccc1CN1CCCNCCNCCCNCC1 [AMD3100, 1,1′-[1,4-phenylene-bis(methylene)]-bis-1,4,8,11-tetraazacyclotetradecane]
Progenitor cells
  mobilization of progenitor cells in combination with mu MIP-1α: additive to greater than additive
[1]; T = 1 hour
  Fold Change Compared to TIME = 0, nucleated cellularity PBL-LD, MEAN: 1.86
  Fold Change Compared to TIME = 0, nucleated cellularity PBL-US, MEAN: 1.69
  nucleated cellularity PBL-LD, % CHG: 86.2%
  nucleated cellularity PBL-US, % CHG: 68.6%
[1]; T = 3 hours
  Fold Change Compared to TIME = 0, nucleated cellularity PBL-LD, MEAN: 2.86
  Fold Change Compared to TIME = 0, nucleated cellularity PBL-US, MEAN: 2.80
  nucleated cellularity PBL-LD, % CHG: 185.6%
  nucleated cellularity PBL-US, % CHG: 180.2%
[1]; T = 6 hours
  Fold Change Compared to TIME = 0, nucleated cellularity PBL-LD, MEAN: 3.66
  Fold Change Compared to TIME = 0, nucleated cellularity PBL-US, MEAN: 3.26
  nucleated cellularity PBL-LD, % CHG: 266.3%
  nucleated cellularity PBL-US, % CHG: 225.8%
[1]; T = 9 hours
  Fold Change Compared to TIME = 0, nucleated cellularity PBL-LD, MEAN: 3.64
  Fold Change Compared to TIME = 0, nucleated cellularity PBL-US, MEAN: 3.09
  nucleated cellularity PBL-LD, % CHG: 264.3%
  nucleated cellularity PBL-US, % CHG: 209.4%
[1]; T = 24 hours
  Fold Change Compared to TIME = 0, nucleated cellularity PBL-LD, MEAN: 1.05
  Fold Change Compared to TIME = 0, nucleated cellularity PBL-US, MEAN: 1.07
  nucleated cellularity PBL-LD, % CHG: 4.6%
  nucleated cellularity PBL-US, % CHG: 7.0%
[2]; T = 1 hour
  mean fold change vs T=0, methylcellulose culture BFU-E, MEAN: 1.99
  mean fold change vs T=0, methylcellulose culture CFU-GEMM, MEAN: 2.32
  mean fold change vs T=0, methylcellulose culture CFU-GM, MEAN: 4.77
  methylcellulose culture BFU-E, % CHG: 98.9%
  methylcellulose culture CFU-GEMM, % CHG: 131.8%
  methylcellulose culture CFU-GM, % CHG: 376.7%
[2]; T = 3 hours
  mean fold change vs T=0, methylcellulose culture BFU-E, MEAN: 3.21
  mean fold change vs T=0, methylcellulose culture CFU-GEMM, MEAN: 4.33
  mean fold change vs T=0, methylcellulose culture CFU-GM, MEAN: 13.66
  methylcellulose culture BFU-E, % CHG: 221.3%
  methylcellulose culture CFU-GEMM, % CHG: 332.5%
  methylcellulose culture CFU-GM, % CHG: 1266.5%
[2]; T = 6 hours
  mean fold change vs T=0, methylcellulose culture BFU-E, MEAN: 6.01
  mean fold change vs T=0, methylcellulose culture CFU-GEMM, MEAN: 10.07
  mean fold change vs T=0, methylcellulose culture CFU-GM, MEAN: 21.71
  methylcellulose culture BFU-E, % CHG: 500.5%
  methylcellulose culture CFU-GEMM, % CHG: 907.2%
  methylcellulose culture CFU-GM, % CHG: 2070.6%
[2]; T = 9 hours
  mean fold change vs T=0, methylcellulose culture BFU-E, MEAN: 4.34
  mean fold change vs T=0, methylcellulose culture CFU-GEMM, MEAN: 5.25
  mean fold change vs T=0, methylcellulose culture CFU-GM, MEAN: 10.47
  methylcellulose culture BFU-E, % CHG: 334.4%
  methylcellulose culture CFU-GEMM, % CHG: 425.4%
  methylcellulose culture CFU-GM, % CHG: 947.3%
[2]; T = 24 hours
  mean fold change vs T=0, methylcellulose culture BFU-E, MEAN: 1.26
  mean fold change vs T=0, methylcellulose culture CFU-GEMM, MEAN: 1.53
  mean fold change vs T=0, methylcellulose culture CFU-GM, MEAN: 1.56
  methylcellulose culture BFU-E, % CHG: 26.3%
  methylcellulose culture CFU-GEMM, % CHG: 53.2%
  methylcellulose culture CFU-GM, % CHG: 55.5%
[2]; all five human donors
  time after injection of maximal fold increases in circulating levels of progenitor cells: 6 h
